From PMC11238290, “Anti-Staphy Peptides Rationally Designed from Cry10Aa Bacterial Protein” (ACS Omega, 2024)
Where a SMILES comes first, the peptide text is derived from it.

Legend:
[1] = Solubility observed in the aqueous EPR treatment solution; format: physicochemical; settings: 100 μg of peptide in 50 μL of PBS (EPR treatment); observation
Description: The EPR spectra (Figure 8A) indicate that the spin probe was structured in very rigid membranes, presenting 2A∥ values of ∼62 to ∼63 G, much higher than those found for the Leishmania parasite (∼54 G).[73]−[76] […] Pronounced increases in lipid fluidity generally create disorder in the lipid chains packaging, especially at lipid–protein interfaces, where they increase the likelihood of pore formation that could lead to electrolyte leakage and permeation of small molecules.[77]
Peptides' immediate effects on bacteria’s outermost membrane fluidity were analyzed by EPR spectroscopy. The bacteria in culture (1 × 10^9 CFU) were centrifuged and resuspended in 50 μL of PBS containing 100 μg of peptide. After 20 min of incubation, the sample was spin-labeled for the EPR experiment. To incorporate the spin label into the bacterial membranes, a 5 mg·mL^–1 ethanolic solution containing the spin label 5-doxyl stearic acid (5-DSA, Sigma-Aldrich, St. Louis, MO, USA) was added to each sample. Immediately after spin labeling, the sample was transferred to a 1 mm i.d. capillary tube, which was flame-sealed on one side. The capillary was centrifuged at 25,000 × g for 5 min, and the cell pellet of approximately 2 mm was placed in the center of the resonance cavity. […]

[2] = tested on: serum proteases; experiment: Peptide stability in human serum by RP-HPLC; format: in vitro ADME; settings: human serum (male AB plasma, Sigma-Aldrich), serum:peptide 5:1 v/v, peptide 256 μM, 37 °C, RP-HPLC Venusil ASB C18, PDA 216 nm, mean ± SD of three replicates; for remaining at 2 h, 256 μM: read-out: relative peak area (%), peptide remaining in human serum, 2 h; for remaining at 4 h, 256 μM: read-out: relative peak area (%), peptide remaining in human serum, 4 h; for remaining at 6 h, 256 μM: read-out: relative peak area (%), peptide remaining in human serum, 6 h; for remaining at 12 h, 256 μM: read-out: relative peak area (%), peptide remaining in human serum, 12 h
Method: (§1) The stability of peptides AMPCry10Aa, AMPCry10Aa_1, and AMPCry10Aa_5, against serum proteases was evaluated as previously described.[86],[87] Aliquots of filtered human serum from male AB plasma from Sigma-Aldrich were mixed with each peptide to a final concentration of 256 μM in a 5:1 v/v ratio. Each aliquot was then incubated at 37 °C, and 200 μL was collected for analysis of peptide degradation at 0, 2, 4, 6, 12, and 24 h. The samples were analyzed by reversed-phase high-performance liquid chromatography (RP-HPLC) with a Shimadzu LC system (Kyoto, Japan) using LC Solution software. A gradient method and a Venusil ASB C18 column (250 mm × 4.6 mm, 5 μm, Bonna-Agela Technologies) with an injection volume of 15 μL were used. A segmented gradient was applied with a constant flow rate of 1.0 mL min^–1 and PDA detection at 216 nm using water and acetonitrile eluents as the mobile phase. The peptide amount was quantified by subtracting the relative area of each analyzed time peak from the initial control peak area. All assays were performed in triplicate.

[3] = Peptide stability in human serum by RP-HPLC; format: in vitro ADME; settings: human serum (male AB plasma, Sigma-Aldrich), serum:peptide 5:1 v/v, peptide 256 μM, 37 °C, RP-HPLC Venusil ASB C18, PDA 216 nm; for relative peak area (%), peptide remaining in human serum, 6 h: 360 min; for peptide remaining in human serum, 24 h: triplicate
Method: as §1

SMILES | solubility in the aqueous treatment solution [1] | remaining at 2 h, 256 μM [2] [%] | remaining at 4 h, 256 μM [2] [%] | remaining at 6 h, 256 μM [2] [%] | relative peak area (%), peptide remaining in human serum, 0 h ([3]; mean ± SD of three replicates) [%] | relative peak area (%), peptide remaining in human serum, 2 h ([3]; 2 h, mean ± SD of three replicates) | relative peak area (%), peptide remaining in human serum, 12 h ([3]; mean ± SD of three replicates) | remaining at 12 h, 256 μM [2] [%] | relative peak area (%), peptide remaining in human serum, 6 h ([3]; mean ± SD of three replicates) [%] | peptide remaining in human serum, 24 h [3]
CC[C@H](C)[C@H](N)C(=O)N[C@H](C(=O)N[C@@H](CC(N)=O)C(=O)N[C@H](C(=O)N[C@@H](CC(C)C)C(=O)N[C@H](C(=O)N[C@@H](CO)C(=O)N[C@H](C(=O)N[C@H](C(=O)N[C@H](C(=O)N1CCC[C@H]1C(=O)N[C@H](C(=O)N[C@@H](CCCCN)C(=O)N[C@@H](CC(N)=O)C(=O)N[C@@H](CCC(N)=O)C(=O)N[C@@H](CC(C)C)C(=O)N[C@@H](CC(=O)O)C(=O)N[C@@H](CCCCN)C(=O)N[C@@H](Cc1ccc(O)cc1)C(=O)N[C@@H](CCC(N)=O)C(N)=O)[C@@H](C)CC)[C@@H](C)O)C(C)C)[C@@H](C)CC)[C@@H](C)O)C(C)C)[C@@H](C)CC [AMPCry10Aa] (H-IINVLTSIVTPIKNQLDKYQ-NH2) | did not dissolve | 39.6 ± 2.44 | 18.6 ± 2.76 | ~0 | 92.2 ± 3.23 | about 40% | no longer detectable | – | – | –
CC[C@H](C)[C@H](NC(=O)[C@H](C)NC(=O)[C@@H](NC(=O)[C@@H](NC(=O)[C@@H](NC(=O)[C@@H](NC(=O)[C@@H](NC(=O)[C@H](CCCCN)NC(=O)[C@H](CC(C)C)NC(=O)[C@H](CC(N)=O)NC(=O)[C@H](CC(=O)O)NC(=O)[C@@H](N)CCCCN)[C@@H](C)O)[C@@H](C)CC)[C@@H](C)CC)C(C)C)[C@@H](C)O)C(=O)N[C@@H](CCCCN)C(=O)N[C@@H](CC(N)=O)C(=O)N[C@H](C(=O)N[C@@H](CC(C)C)C(=O)N[C@@H](CC(=O)O)C(=O)N[C@@H](CCCCN)C(=O)N[C@@H](Cc1ccc(O)cc1)C(=O)N[C@@H](CCC(N)=O)C(N)=O)[C@@H](C)CC [AMPCry10Aa_1] (H-KDNLKTIIVTAIKNILDKYQ-NH2) | – | 81.8 ± 1.54 | 74.7 ± 1.98 | 60 | 96.93 ± 0.51 | – | trace | 4.37 ± 1.32 | 58.96 ± 2.33 | no longer detectable
CC[C@H](C)[C@H](N)C(=O)N[C@H](C(=O)N[C@@H](CC(N)=O)C(=O)N[C@H](C(=O)N[C@@H](CCCCN)C(=O)N[C@H](C(=O)N[C@@H](CO)C(=O)N[C@@H](CC(C)C)C(=O)N[C@@H](CCCCN)C(=O)N[C@H](C(=O)N[C@H](C(=O)N[C@H](C(=O)N[C@@H](CCCCN)C(=O)N[C@@H](CC(N)=O)C(=O)N[C@@H](C)C(=O)N[C@@H](CC(C)C)C(=O)N[C@@H](CC(=O)O)C(=O)N[C@@H](CCCCN)C(=O)N[C@H](C(=O)N[C@@H](CCC(N)=O)C(N)=O)[C@@H](C)CC)[C@@H](C)CC)[C@@H](C)CC)[C@@H](C)O)[C@@H](C)O)C(C)C)[C@@H](C)CC [AMPCry10Aa_5] (H-IINVKTSLKTIIKNALDKIQ-NH2) | – | 81.6 ± 2.21 | 68.8 ± 0.99 | 40 | 92.83 ± 3.33 | – | trace | 8.11 ± 3.65 | 36.73 ± 1.84 | no longer detectable
